{"source": "paper PMC10539350", "about": "(Scientific Reports, 2023)"}
{"tested_on": "M. tuberculosis SIRE Ciprofloxacin resistant 22/22", "assay": "tuberculostatic activity, broth microdilution MIC (Alamar blue)", "type": "cell-based, Mycobacterium tuberculosis", "details": "not given"}
{"smiles": "CO[C@H]1/C=C/O[C@@]2(C)Oc3c(C)c(O)c4c(O)c(c(/C=N/N5CCN(C)CC5)c(O)c4c3C2=O)NC(=O)/C(C)=C\\C=C\\[C@H](C)[C@H](O)[C@@H](C)[C@@H](O)[C@@H](C)[C@H](OC(C)=O)[C@@H]1C", "note": "[Rifampicin, reference compound]", "activity in words": "no activity"}
{"tested_on": "M. tuberculosis SIRE Ciprofloxacin resistant 22/22", "assay": "tuberculostatic activity, broth microdilution MIC (Alamar blue)", "type": "cell-based, Mycobacterium tuberculosis", "details": "Mycobacterium tuberculosis, read-out: Minimal inhibitory concentration", "units": {"MIC": "µg/mL"}}
{"smiles": "CC(=O)NC[C@H]1CN(c2ccc(N3CCOCC3)c(F)c2)C(=O)O1", "note": "[Linezolid, reference compound]", "MIC": 8}
{"smiles": "CO[C@H]1/C=C/O[C@@]2(C)Oc3c(C)c(O)c4c(O)c(c(/C=N/N5CCN(C)CC5)c(O)c4c3C2=O)NC(=O)/C(C)=C\\C=C\\[C@H](C)[C@H](O)[C@@H](C)[C@@H](O)[C@@H](C)[C@H](OC(C)=O)[C@@H]1C", "note": "[Rifampicin, reference compound]", "MIC": 256}
{"tested_on": "M. tuberculosis SIRE Ciprofloxacin resistant 22/22", "assay": "tuberculostatic activity, broth microdilution MIC (Alamar blue)", "type": "cell-based, Mycobacterium tuberculosis", "details": "Mycobacterium tuberculosis; read-out: Minimal inhibitory concentration", "units": {"MIC": "µg/mL"}}
{"smiles": "Cc1ccc(C(C)C)c(OCC(=O)N2CCN(c3cc4c(cc3F)c(=O)c(C(=O)O)cn4C3CC3)CC2)c1", "note": "[Compound 9]", "MIC": 128}
{"smiles": "[H]/N=C(/N)N[C@H]1[C@H](O)[C@@H](O)[C@H](O[C@@H]2O[C@@H](C)[C@](O)(C=O)[C@H]2O[C@@H]2O[C@@H](CO)[C@H](O)[C@@H](O)[C@@H]2NC)[C@@H](N/C(N)=N\\[H])[C@@H]1O", "note": "[Streptomycin, reference compound]", "MIC": 32}
{"smiles": "CC1CCC(C(C)C)C(OC(=O)CCCCN2CCN(c3cc4c(cc3F)c(=O)c(C(=O)O)cn4C3CC3)CC2)C1", "note": "(stereo not drawn) [Compound 5]", "MIC": 16}
{"smiles": "Cc1ccc(C(C)C)c(OC(=O)CCCCN2CCN(c3cc4c(cc3F)c(=O)c(C(=O)O)cn4C3CC3)CC2)c1", "note": "[Compound 13]", "MIC": 32}
{"smiles": "Cc1ccc(C(C)C)c(OC(=O)CCN2CCN(c3cc4c(cc3F)c(=O)c(C(=O)O)cn4C3CC3)CC2)c1", "note": "[Compound 11]", "MIC": 64}
{"smiles": "CC[C@@H](CO)NCCN[C@@H](CC)CO", "note": "[Ethambutol, reference compound]", "MIC": 4}
{"smiles": "Cc1ccc(C(C)C)c(OC(=O)CCCN2CCN(c3cc4c(cc3F)c(=O)c(C(=O)O)cn4C3CC3)CC2)c1", "note": "[Compound 12]", "MIC": 32}
{"smiles": "Cc1ccc(C(C)C)c(OC(=O)CCCCCOC(=O)c2cn(C3CC3)c3cc(N4CCN(CCCCCC(=O)Oc5cc(C)ccc5C(C)C)CC4)c(F)cc3c2=O)c1", "note": "[Compound 16]", "MIC": 256}
{"smiles": "CC1CCC(C(C)C)C(OC(=O)CCCN2CCN(c3cc4c(cc3F)c(=O)c(C(=O)O)cn4C3CC3)CC2)C1", "note": "(stereo not drawn) [Compound 4]", "MIC": 16}
{"smiles": "CC(C)[C@@H]1CC[C@@H](C)C[C@H]1OC(=O)CCCCCN1CCN(c2cc3c(cc2F)c(=O)c(C(=O)O)cn3C2CC2)CC1", "note": "[Compound 6, 1‐cyclopropyl‐6‐fluoro‐7‐{4‐[6‐((1R,2S,5R)‐2‐isopropyl‐5‐methylcyclohexyloxy)‐6‐oxohexyl]piperazin‐1‐yl}‐4‐oxo‐1,4‐dihydroquinoline‐3‐carboxylic acid]", "MIC": 8}
{"smiles": "CC1CCC(C(C)C)C(OC(=O)CCN2CCN(c3cc4c(cc3F)c(=O)c(C(=O)O)cn4C3CC3)CC2)C1", "note": "(stereo not drawn) [Compound 3]", "MIC": 16}
{"smiles": "CC1CCC(C(C)C)C(OC(=O)CCCCOC(=O)c2cn(C3CC3)c3cc(N4CCN(CCCCC(=O)OC5CC(C)CCC5C(C)C)CC4)c(F)cc3c2=O)C1", "note": "(stereo not drawn) [Compound 7]", "MIC": 256}
{"smiles": "Cc1ccc(C(C)C)c(OC(=O)CCCOC(=O)c2cn(C3CC3)c3cc(N4CCN(CCCC(=O)Oc5cc(C)ccc5C(C)C)CC4)c(F)cc3c2=O)c1", "note": "[Compound 15]", "MIC": 256}
{"smiles": "CC1CCC(C(C)C)C(OCC(=O)N2CCN(c3cc4c(cc3F)c(=O)c(C(=O)O)cn4C3CC3)CC2)C1", "note": "(stereo not drawn) [Compound 1]", "MIC": 32}
{"smiles": "CC1CCC(C(C)C)C(OC(=O)CCCCCOC(=O)c2cn(C3CC3)c3cc(N4CCN(CCCCCC(=O)OC5CC(C)CCC5C(C)C)CC4)c(F)cc3c2=O)C1", "note": "(stereo not drawn) [Compound 8]", "MIC": 256}
{"smiles": "Cc1ccc(C(C)C)c(OC(=O)CN2CCN(c3cc4c(cc3F)c(=O)c(C(=O)O)cn4C3CC3)CC2)c1", "note": "[Compound 10]", "MIC": 128}
{"smiles": "CC1CCC(C(C)C)C(OC(=O)CN2CCN(c3cc4c(cc3F)c(=O)c(C(=O)O)cn4C3CC3)CC2)C1", "note": "(stereo not drawn) [Compound 2]", "MIC": 16}
{"smiles": "Cc1ccc(C(C)C)c(OC(=O)CCCCCN2CCN(c3cc4c(cc3F)c(=O)c(C(=O)O)cn4C3CC3)CC2)c1", "note": "[Compound 14]", "MIC": 16}
{"smiles": "NNC(=O)c1ccncc1", "note": "[Isoniazid, reference compound]", "MIC": 32}
{"tested_on": "M. tuberculosis SIRE Ciprofloxacin resistant 22/22", "assay": "not given", "type": "cell-based, Mycobacterium tuberculosis", "set-up": "unit not given beside the values", "details": "not given"}
{"smiles": "CC(=O)NC[C@H]1CN(c2ccc(N3CCOCC3)c(F)c2)C(=O)O1", "note": "[Linezolid, reference compound]", "MIC for reference drug in the presence of derivative 6": 4}
{"smiles": "O=C(O)c1cn(C2CC2)c2cc(N3CCNCC3)c(F)cc2c1=O", "note": "[Ciprofloxacin, reference compound]", "MIC for reference drug in the presence of derivative 6": 8}
